Test results: paper PMC6384738, “Structure-Function Studies of Polymyxin B Lipononapeptides” (Molecules, 2019)
≈ marks a conversion by molar mass, not a printed value. Where a SMILES comes first, the peptide text is derived from it. Bridges are numbered along the chain shown (N, C = ends). [ ]: non-standard residue; d: D form. The star is where a group is joined. dDab = NCC[C@@H](N)C(=O)O; Octanoyl = CCCCCCCC(=O)*; Dab = NCC[C@H](N)C(=O)O

How the values were obtained:
[1] = in vitro; details: human
How it was run: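 HK-2 cells seeded 2000 cells/well in DMEM/F12 with 10% FBS, grown 24 h, then exposed to compounds (300 µM to 2.3 µM, 2-fold series; colistin/polymyxin B 1 mM to 7.8 µM) for 24 h at 37 °C. LDH in medium read at 450 nm after 30 min; cytotoxicity % relative to 1% Triton X-100 and untreated cells.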

[2] = test system: K. pneumoniae ATCC 700603; test: microbe, parasite or virus in culture; details: ATCC 700603, 18 h
How it was run: (§1)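 Values are minimum inhibitory concentrations in mg/L, obtained by serial dilution of compound in broth with the bacterial strain. Polymyxin B, colistin, vancomycin and gentamicin were run alongside as reference antibacterials.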

[3] = test system: P. aeruginosa ATTC 27853; test: microbe, parasite or virus in culture; details: ATTC 27853, 18 h
How it was run: as §1

[4] = test system: K. pneumoniae ATCC 13833; test: microbe, parasite or virus in culture; details: ATCC 13833, 18 h
How it was run: as §1

[5] = test system: K. pneumoniae BAA 2146; test: microbe, parasite or virus in culture; details: BAA 2146, 18 h
How it was run: as §1

[6] = test system: S. aureus ATCC 25923; test: microbe, parasite or virus in culture; details: ATCC 25923, 18 h
How it was run: as §1

[7] = test system: ATCC reference strains (Escherichia coli, Klebsiella pneumoniae, A. baumannii, and P. aeruginosa)
Experimental: All compounds synthesised in this study were assessed for their minimum inhibitory concentrations (MIC, mg/L) by broth microdilution assay against five antibiotic-sensitive and resistant ATCC reference strains covering the Gram-negative ESKAPE pathogens (Escherichia coli, Klebsiella pneumoniae, A. baumannii, and P. aeruginosa) (Table 1, Table 2 and Table 3). Staphylococcus aureus was also included as a representative Gram-positive bacterial strain. […] Polymyxin B 1, colistin 2, vancomycin and gentamicin were used as positive inhibitor comparator compounds. Compounds were counter-screened against human proximal tubular epithelial cells (HK-2), using LDH release as a general indicator of cellular toxicity.

[8] = test system: A. baumannii ATCC 19606; test: microbe, parasite or virus in culture; details: ATCC 19606, 18 h
How it was run: as §1

[9] = test system: E. coli ATCC 25922; test: microbe, parasite or virus in culture; details: ATCC 25922, 18 h
How it was run: as §1

SMILES | CC50 at 24 h [1] | MIC K. pneumoniae ATCC 700603 [2] | MIC P. aeruginosa ATTC 27853 [3] | MIC K. pneumoniae ATCC 13833 [4] | MIC K. pneumoniae BAA 2146 [5] | MIC S. aureus ATCC 25923 [6] | MIC for most strains [7] | MIC A. baumannii ATCC 19606 [8] | MIC E. coli ATCC 25922 [9] | MIC for all strains [7] | fold more active than nonapeptide 8 ([7]; MIC comparison against most strains)
CCCCCCCC(=O)N[C@H](C(=O)N[C@@H](CCN)C(=O)N[C@H]1CCNC(=O)[C@H]([C@@H](C)O)NC(=O)[C@H](CCN)NC(=O)[C@H](CCN)NC(=O)[C@H](CC(C)C)NC(=O)[C@@H](Cc2ccccc2)NC(=O)[C@H](CCN)NC1=O)[C@@H](C)O [Compound 8] (Octanoyl-T[Dab][Dab][Dab][dF]L[Dab][Dab]T; lactam 3-C) | 209 µM | 2 µg/mL (≈ 1.84 µM) | 0.5 µg/mL (≈ 0.459 µM) | 1 µg/mL (≈ 0.918 µM) | 2 µg/mL (≈ 1.84 µM) | >32 µg/mL | 1 to 2 µg/mL |  |  |  | 
CCCCCCCC(=O)N[C@H](C(=O)N[C@@H](CCN)C(=O)N[C@@H]1CCNC(=O)[C@H]([C@@H](C)O)NC(=O)[C@H](CCN)NC(=O)[C@H](CCN)NC(=O)[C@H](CC(C)C)NC(=O)[C@@H](Cc2ccccc2)NC(=O)[C@H](CCN)NC1=O)[C@@H](C)O [Compound 19] (Octanoyl-T[Dab][dDab][Dab][dF]L[Dab][Dab]T; lactam 3-C) | > 300 µM | >32 µg/mL | >32 µg/mL | >32 µg/mL | >32 µg/mL | >32 µg/mL |  | >32 µg/mL | >32 µg/mL | > 32 µg/mL | 
CCCCCCCC(=O)N[C@H](C(=O)N[C@@H](CO)C(=O)N[C@H]1CCNC(=O)[C@H]([C@@H](C)O)NC(=O)[C@H](CCN)NC(=O)[C@H](CCN)NC(=O)[C@H](CC(C)C)NC(=O)[C@@H](Cc2ccccc2)NC(=O)[C@H](CCN)NC1=O)[C@@H](C)O [Compound 35] (Octanoyl-TS[Dab][Dab][dF]L[Dab][Dab]T; lactam 3-C) | 220 µM | 32 µg/mL (≈ 29.7 µM) | 16 µg/mL (≈ 14.9 µM) | >32 µg/mL | 16 µg/mL (≈ 14.9 µM) | >32 µg/mL | 16 to 32 µg/mL | >32 µg/mL |  |  | 
CCCCCCCC(=O)N[C@@H](CCN)C(=O)N[C@H](C(=O)N[C@@H](CCN)C(=O)N[C@H]1CCNC(=O)[C@H]([C@@H](C)O)NC(=O)[C@H](CCN)NC(=O)[C@H](CCN)NC(=O)[C@H](CC(C)C)NC(=O)[C@@H](Cc2ccccc2)NC(=O)[C@H](CCN)NC1=O)[C@@H](C)O [PmxB3, polymyxin B3, reference compound] (Octanoyl-[Dab]T[Dab][Dab][Dab][dF]L[Dab][Dab]T; lactam 4-C) | > 300 µM | 1 µg/mL (≈ 0.841 µM) | 0.5 µg/mL (≈ 0.42 µM) | 2 µg/mL (≈ 1.68 µM) | 0.5 µg/mL (≈ 0.42 µM) | >32 µg/mL |  |  |  |  | 2- to 4 fold
